Test results published in patent US20230382925A1, “MODULATORS OF CYSTIC FIBROSIS TRANSMEMBRANE CONDUCTANCE REGULATOR” (VERTEX PHARMACEUTICALS INCORPORATED, priority 2020, published 2023).
Read-outs that look alike come from different tables or passages of the source.

Target: CFTR (Homo sapiens, UniProt P13569)
Experiment: Membrane Potential Dye, Enteroid Assay B
Format: cell-based
Protocol: Base medium (ADF+++) consisted of Advanced […], 2 mM Glutamax, 10 mM HEPES, 1 μg/mL penicillin/streptomycin.
Intestinal enteroid maintenance medium (IEMMN) consisted of ADF+++, 1× B27 supplement, 1× N2 supplement, 1.25 mM N-acetyl cysteine, 10 mM Nicotinamide, 50 ng/mL hEGF, 10 nM Gastrin, 1 μg/mL hR-spondin-1, 100 ng/mL hNoggin, TGF-b type 1 inhibitor A-83-01, 100 μg/mL Primocin, 10 μM P38 MAPK inhibitor SB202190.
Bath 1 Buffer consisted of 1 mM MgCl2, 160 mM NaCl, 4.5 mM KCl, 10 mM HEPES, 10 mM Glucose, 2 mM CaCl2).
Chloride Free Buffer consisted of 1 mM Magnesium Gluconate, 2 mM Calcium Gluconate, 4.5 mM Potassium Gluconate, 160 mM Sodium Gluconate, 10 mM HEPES, 10 mM Glucose.
Bath 1 Dye Solution consisted of Bath 1 Buffer, 0.04% Pluronic F127, 20 μM Methyl Oxonol, 30 μM CaCCinh-A01, 30 μM Chicago Sky Blue.
Chloride Free Dye Solution consisted of Chloride Free Buffer, 0.04% Pluronic F127, 20 μM Methyl Oxonol, 30 μM CaCCinh-A01, 30 μM Chicago Sky Blue.
Chloride Free Dye Stimulation Solution consisted of Chloride Free Dye Solution, 10 μM forskolin, 100 μM IBMX, and 300 nM Compound III.
Human intestinal epithelial enteroid cells were obtained from the Hubrecht Institute for Developmental Biology and Stem Cell Research, Utrecht, The Netherlands and expanded in T-Flasks as previously described (Dekkers J F, Wiegerinck C L, de Jonge H R, Bronsveld I, Janssens H M, de Winter-de Groot K M, Brandsma A M, de Jong N W M, Bijvelds M J C, Scholte B J, Nieuwenhuis E E S, van den Brink S, Clevers H, van der Ent C K, Middendorp S and M Beekman J M. A functional CFTR assay using primary cystic fibrosis intestinal organoids. Nat Med. 2013 July; 19(7):939-45.).
3. Enteroid Cell Harvesting and Seeding
Cells were recovered in cell recovery solution, collected by centrifugation at 650 rpm for 5 min at 4° C., resuspended in TrypLE and incubated for 5 min at 37° C. Cells were then collected by centrifugation at 650 rpm for 5 min at 4° C. and resuspended in IEMM containing 10 μM ROCK inhibitor (RI). The cell suspension was passed through a 40 μm cell strainer and resuspended at 1×10^6 cells/mL in IEMM containing 10 μM RI. Cells were seeded at 5000 cells/well into multi-well plates and incubated for overnight at 37° C., 95% humidity and 5% CO2 prior to assay.
5. Membrane Potential Dye, Enteroid Assay B
Enteroid cells were incubated with test compound in IEMM for 18-24 hours at 37° C., 95% humidity and 5% CO2. […] Briefly, cells were washed 5 times in Bath 1 Buffer. Bath 1 Dye Solution was added and the cells were incubated for 25 min at room temperature. Following dye incubation, cells were washed 3 times in Chloride Free Dye Solution. Chloride transport was initiated by addition of Chloride Free Dye Stimulation Solution and the fluorescence signal was read for 15 min. […] Chloride transport was then expressed as a percentage of the chloride transport following treatment with 1 μM (14S)-8-[3-(2-{Dispiro[2.0.2.1]heptan-7-yl}ethoxy)-1H-pyrazol-1-yl]-12,12-dimethyl-2λ^6-thia-3,9,11,18,23-pentaazatetracyclo[17.3.1.111,14.05,10]tetracosa-1(22),5,7,9,19(23),20-hexaene-2,2,4-trione, 3 μM (R)-1-(2,2-difluorobenzo[d][1,3]dioxol-5-yl)-N-(1-(2,3-dihydroxypropyl)-6-fluoro-2-(1-hydroxy-2-methylpropan-2-yl)-1H-indol-5-yl)cyclopropanecarboxamide and 300 nM acute N-[2,4-bis(1,1-dimethylethyl)-5-hydroxyphenyl]-1,4-dihydro-4-oxoquinoline-3-carboxamide triple combination control (% Activity).

[1] = Table 10, read-out: Ent. B EC50

Sequence of CFTR (P13569 with tags, fused parts or gaps DEL508-508): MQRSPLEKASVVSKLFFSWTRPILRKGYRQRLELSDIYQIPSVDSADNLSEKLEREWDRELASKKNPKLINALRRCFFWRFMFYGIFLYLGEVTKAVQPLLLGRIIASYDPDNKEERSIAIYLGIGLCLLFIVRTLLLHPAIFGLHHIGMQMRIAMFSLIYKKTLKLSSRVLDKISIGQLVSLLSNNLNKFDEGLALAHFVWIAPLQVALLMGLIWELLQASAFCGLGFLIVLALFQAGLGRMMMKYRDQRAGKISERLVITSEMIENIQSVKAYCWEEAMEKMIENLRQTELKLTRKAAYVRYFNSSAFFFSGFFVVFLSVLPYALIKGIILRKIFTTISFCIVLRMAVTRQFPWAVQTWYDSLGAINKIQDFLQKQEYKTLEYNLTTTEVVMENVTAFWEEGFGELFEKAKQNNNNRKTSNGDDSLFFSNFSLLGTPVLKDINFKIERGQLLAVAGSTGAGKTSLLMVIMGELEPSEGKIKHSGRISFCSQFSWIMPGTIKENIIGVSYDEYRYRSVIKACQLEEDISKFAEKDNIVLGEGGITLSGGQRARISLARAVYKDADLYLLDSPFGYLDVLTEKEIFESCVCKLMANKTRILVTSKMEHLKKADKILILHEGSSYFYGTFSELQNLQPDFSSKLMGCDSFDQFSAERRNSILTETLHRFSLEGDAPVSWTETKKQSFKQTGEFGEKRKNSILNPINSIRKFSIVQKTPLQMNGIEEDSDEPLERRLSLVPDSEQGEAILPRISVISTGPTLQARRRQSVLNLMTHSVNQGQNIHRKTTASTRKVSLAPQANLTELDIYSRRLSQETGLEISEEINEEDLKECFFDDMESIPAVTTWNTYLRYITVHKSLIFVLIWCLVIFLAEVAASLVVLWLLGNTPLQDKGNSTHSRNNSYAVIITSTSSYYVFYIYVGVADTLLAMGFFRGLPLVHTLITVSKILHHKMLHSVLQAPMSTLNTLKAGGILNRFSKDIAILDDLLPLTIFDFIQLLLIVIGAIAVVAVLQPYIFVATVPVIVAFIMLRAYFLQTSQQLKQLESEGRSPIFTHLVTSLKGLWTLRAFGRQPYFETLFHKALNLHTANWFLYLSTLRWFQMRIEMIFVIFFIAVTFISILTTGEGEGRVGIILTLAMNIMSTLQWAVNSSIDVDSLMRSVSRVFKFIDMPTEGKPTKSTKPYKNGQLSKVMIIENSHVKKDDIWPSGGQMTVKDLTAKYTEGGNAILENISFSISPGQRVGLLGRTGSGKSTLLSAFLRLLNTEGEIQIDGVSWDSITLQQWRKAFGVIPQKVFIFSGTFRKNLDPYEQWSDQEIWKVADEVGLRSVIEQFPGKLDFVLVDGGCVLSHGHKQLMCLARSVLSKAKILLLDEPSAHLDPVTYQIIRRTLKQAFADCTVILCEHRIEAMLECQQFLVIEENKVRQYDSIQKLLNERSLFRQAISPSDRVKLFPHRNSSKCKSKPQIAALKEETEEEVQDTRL

Compound	Ent. B Max Activity (%) (Table 9)	EC50 (Table 9, read-out: Ent. B EC50)	other results
[H][C@]1(N2C(=O)c3cccc(c3)S(=O)(=O)Nc3nc(cc(-c4c(C)cccc4C)n3)OC[C@H]2CC2(C(F)(F)F)CC2)C[C@@]2(C[C@H](NC(=O)OC(C)C)C2)C1 (stereo partly drawn) [Compound 78, Isopropyl ((2S,4s,6S)-6-((R)-1^6-(2,6-dimethylphenyl)-3,3-dioxido-5-oxo-7-((1-(trifluoromethyl)cyclopropyl)methyl)-9-oxa-3-thia-2,6-diaza-1(2,4)-pyrimidina-4(1,3)-benzenacyclononaphane-6-yl)spiro[3.3]heptan-2-yl)carbamate]	–	–	Ent. B Max Activity (%): +++ (+++ is >60%); EC50 (read-out: Ent. B EC50): < 1 µM
COCCN1CCC2(CC1)CC(N1C(=O)c3cccc(n3)S(=O)(=O)Nc3cc(cc(-c4c(C)cccc4C)n3)OC[C@H]1CC(C)C)C2 [Compound 422]	+++ (+++ is >60%)	–	–
Cc1cccc(C)c1-c1cc2nc(n1)NS(=O)(=O)c1cccc(c1)C(=O)N([C@H]1C[C@@H](OC(F)(F)C(F)(F)F)C1)[C@H](CC(C)C)CO2 [Compound 210]	–	–	Ent. B Max Activity (%) (Table 10): ++ (++ is 30-60%); EC50 [1]: < 1 µM
Cc1cccc(C)c1-c1cc2nc(n1)NS(=O)(=O)c1cccc(c1)C(=O)N(C1CC(NC3CCC3)C1)[C@H](CC(C)C)CO2 (some centres unmarked) [Compound 375]	+++ (+++ is >60%)	< 1 µM	–
Cc1cccc(C)c1-c1cc2nc(n1)NS(=O)(=O)c1cccc(c1)C(=O)N(C1CC3(CC(C(N)=O)C3)C1)[C@H](CC(C)(C)C)CO2 (some centres unmarked) [Compound 232]	–	–	Ent. B Max Activity (%) (Table 10): +++ (+++ is >60%); EC50 [1]: < 1 µM
CCC(=O)N(C)C1CC(N2C(=O)c3cccc(c3)S(=O)(=O)Nc3nc(cc(-c4c(C)cccc4C)n3)OC[C@H]2CC(C)(C)C)C1 (stereo in doubt) [Compound 239]	–	–	Ent. B Max Activity (%) (Table 10): ++ (++ is 30-60%); EC50 [1]: < 1 µM
COCCCN1CCC2(CC1)CC(N1C(=O)c3cccc(c3)S(=O)(=O)Nc3nc(cc(-c4c(C)cccc4C)n3)OC[C@H]1CC(C)(C)C(F)(F)F)C2 [Compound 188, (11R)-6-(2,6-dimethylphenyl)-12-[7-(3-methoxypropyl)-7-azaspiro[3.5]nonan-2-yl]-11-(3,3,3-trifluoro-2,2-dimethylpropyl)-9-oxa-2λ^6-thia-3,5,12,19-tetraazatricyclo[12.3.1.14,8]nonadeca-1(17),4(19),5,7,14(18),15-hexaene-2,2,13-trione]	+++ (+++ is >60%)	< 1 µM	–
Cc1cccc(C)c1-c1cc2nc(n1)NS(=O)(=O)c1cccc(c1)C(=O)N([C@H]1C[C@@H](CNC(=O)OC(C)C)C1)[C@H](CC(C)C)CO2 (single isomer, unassigned) [Compound 107]	+++ (+++ is >60%)	< 1 µM	–
COC(=O)N[C@H]1CC2(C1)C[C@H](N1C(=O)c3cccc(c3)S(=O)(=O)Nc3nc(cc(-c4c(C)cccc4C)n3)OC[C@H]1CC(C)C)C2 (some centres unmarked) [Compound 305]	–	–	Ent. B Max Activity (%): +++ (+++ is >60%); EC50 (read-out: Ent. B EC50): < 1 µM
COCCN[C@H]1C[C@]2(C1)C[C@H](N1C(=O)c3cccc(c3)S(=O)(=O)Nc3nc(cc(-c4c(C)cccc4C)n3)OC[C@H]1CC1(C(F)(F)F)CC1)C2 (some centres unmarked) [Compound 270]	+++ (+++ is >60%)	< 1 µM	–
Cc1cccc(C)c1-c1cc2nc(n1)NS(=O)(=O)c1cccc(n1)C(=O)N(C1CC3(CC3)C1)[C@H](CC(C)C)CO2 [Compound 164, (11R)-6-(2,6-Dimethylphenyl)-11-isobutyl-2,2-dioxo-12-spiro[2.3]hexan-5-yl-9-oxa-2λ^6-thia-3,5,12,18,19-pentazatricyclo[12.3.1.14,8]nonadeca-1(18),4(19),5,7,14,16-hexaen-13-one]	–	–	Ent. B Max Activity (%): +++ (+++ is >60%); EC50 (read-out: Ent. B EC50): < 1 µM
COCC(C)N1CCC2(CC1)CC(N1C(=O)c3cccc(c3)S(=O)(=O)Nc3nc(cc(-c4c(C)cccc4C)n3)OC[C@H]1CC(C)C)C2 (some centres unmarked) [Compound 257]	+++ (+++ is >60%)	< 1 µM	–
Cc1cccc(C)c1-c1cc2nc(n1)NS(=O)(=O)c1cccc(c1)C(=O)N(C1CCCCC1)[C@H](CC(C)(C)C)CO2 [Compound 208]	–	–	Ent. B Max Activity (%) (Table 10): + (+ is <300%)
Cc1cccc(C)c1-c1cc2nc(n1)NS(=O)(=O)c1cccc(c1)C(=O)N(C1CC3(CCN(CCOC(C)C)CC3)C1)[C@H](CC(C)C)CO2 [Compound 300]	–	–	EC50 (read-out: Ent. B EC50): < 1 µM
Cc1cccc(C)c1-c1cc2nc(n1)NS(=O)(=O)c1cccc(c1)C(=O)N(C1CC(N(C)CCC(C)(C)C)C1)[C@H](CC(C)C)CO2 (stereo partly drawn) [Compound 69, (11R)-12-[3-[3,3-dimethylbutyl(methyl)amino]cyclobutyl]-6-(2,6-dimethylphenyl)-11-isobutyl-2,2-dioxo-9-oxa-2λ^6-thia-3,5,12,19-tetrazatricyclo[12.3.1.14,8]nonadeca-1(18),4(19),5,7,14,16-hexaen-13-one]	+++ (+++ is >60%)	< 1 µM	–
Cc1cccc(C)c1-c1cc2nc(n1)NS(=O)(=O)c1cccc(c1)C(=O)N(C1CS(=O)(=O)C1)[C@H](CC(C)(C)C)CO2 [Compound 222]	–	–	Ent. B Max Activity (%) (Table 10): +++ (+++ is >60%); EC50 [1]: < 1 µM
CN[C@H]1C[C@]2(C1)C[C@H](N1C(=O)c3cccc(c3)S(=O)(=O)Nc3nc(cc(-c4c(C)cccc4C)n3)OC[C@H]1CC1(C(F)(F)F)CC1)C2 (some centres unmarked) [Compound 268]	+++ (+++ is >60%)	< 1 µM	–
Cc1cccc(C)c1-c1cc2nc(n1)NS(=O)(=O)c1cccc(c1)C(=O)N(C1CC3(CCN(C4CCOCC4)CC3)C1)[C@H](CC(C)C)CO2 [Compound 275]	+++ (+++ is >60%)	< 1 µM	–
Cc1cccc(C)c1-c1cc2nc(n1)NS(=O)(=O)c1cccc(c1)C(=O)N(C1CC3(CCN(CCO)CC3)C1)[C@H](CC(C)C)CO2 [Compound 289]	++ (++ is 30-60%)	< 1 µM	–
COCC(=O)N1CCC2(CC1)CC(N1C(=O)c3cccc(c3)S(=O)(=O)Nc3nc(cc(-c4c(C)cccc4C)n3)OC[C@H]1CC(C)C)C2 [Compound 459]	+++ (+++ is >60%)	< 1 µM	–
Cc1cccc(C)c1-c1cc2nc(n1)NS(=O)(=O)c1cccc(c1)C(=O)N(C1CC3(CC3)C1)C(CC(C)(C)C(F)(F)F)CO2 (centres unmarked) [Compound 217]	–	–	Ent. B Max Activity (%): +++ (+++ is >60%); EC50 (read-out: Ent. B EC50): < 1 µM
Cc1cccc(C)c1-c1cc2nc(n1)NS(=O)(=O)c1cccc(c1)C(=O)N(C1CC(NC(=O)OC(C)C)C1)[C@H](CC(C)(C)C(F)(F)F)CO2 (single isomer, unassigned) [Compound 195]	–	–	Ent. B Max Activity (%) (Table 10): ++ (++ is 30-60%); EC50 [1]: < 1 µM
Cc1cccc(C)c1-c1cc2nc(n1)NS(=O)(=O)c1cccc(c1)C(=O)N([C@H]1C[C@@H](OC(C)C)C1)[C@H](CC1(C(F)(F)F)CC1)CO2 (single isomer, unassigned) [Compound 130]	+++ (+++ is >60%)	< 1 µM	–

Second part, led by results:

Ent. B Max Activity (%) (Table 9)	EC50 (Table 9, read-out: Ent. B EC50)	Compound	other results
+++ (+++ is >60%)	< 1 µM	Cc1cccc(C)c1-c1cc2nc(n1)NS(=O)(=O)c1cccc(c1)C(=O)N([C@H]1C[C@]3(C[C@@H](N)C3)C1)[C@H](CC1(C(F)(F)F)CC1)CO2 (stereo partly drawn) [Compound 80, (R)-6-((2S,4s,6S)-6-Aminospiro[3.3]heptan-2-yl)-1^6-(2,6-dimethylphenyl)-7-((1-(trifluoromethyl)cyclopropyl)methyl)-9-oxa-3-thia-2,6-diaza-1(2,4)-pyrimidina-4(1,3)-benzenacyclononaphan-5-one 3,3-dioxide]	–
+++ (+++ is >60%)	< 1 µM	Cc1cccc(C)c1-c1cc2nc(n1)NS(=O)(=O)c1cccc(c1)C(=O)N(C1CC3(CC(N)C3)C1)[C@H](CC(C)C)CO2 (stereo in doubt) [Compound 291]	–
